Results reported in US12077503B2, “Substituted cyclic amides and their use as herbicides” (FMC CORPORATION, priority 2015, dated 2024).

Columns and labels:
Type in all cases: in vivo
[1] = system: giant foxtail (Setaria faberi); assay: Test G Post-Emergence Protocol; details: Setaria faberi, post-emergence, 312 h, read-out: Foxtail, Giant damage rating
In short: (§1)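 Pot-grown seedlings, 8 days old, raised in a glasshouse at 24/16 °C day/night with 14 h light and 65% humidity, were sprayed post-emergence with test compound in acetone/water (50:50) plus 0.5% Tween 20 at 15.625, 62.5 or 250 g/ha. Damage was scored visually 13 days later on a 0–100 scale (100 = total damage).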

[2] = system: velvetleaf (Abutilon theophrasti); assay: Test G Post-Emergence Protocol; details: Abutilon theophrasti, post-emergence, 312 h, read-out: Velvetleaf damage rating
In short: as §1

corn (Zea mays) [3] = assay: Test G Post-Emergence Protocol; details: Zea mays, post-emergence, 312 h, read-out: Corn damage rating
In short: as §1

[4] = system: ivy-leaved morning glory (Ipomoea hederacea); assay: Test G Post-Emergence Protocol; details: Ipomoea, post-emergence, 312 h, read-out: Morningglory, Ivy-leaved damage rating
In short: as §1

[5] = system: barnyardgrass (Echinochloa crus-galli); assay: Test G Post-Emergence Protocol; details: Echinochloa crus-galli, post-emergence, 312 h, read-out: Barnyardgrass damage rating
In short: as §1

[6] = system: redroot pigweed (Amaranthus retroflexus); assay: Test G Post-Emergence Protocol; details: Amaranthus retroflexus, post-emergence, 312 h, read-out: Pigweed, Redroot damage rating
In short: as §1

[7] = system: giant foxtail (Setaria faberi); assay: Test G Pre-Emergence Protocol; details: Setaria faberi, pre-emergence, 312 h, evaluated after 13 days
In short: (§2)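 Seeds were sown in standard soil and kept one day in a glasshouse (24/16° C day/night, 14 h light, 65% humidity), then sprayed with compound in acetone/water (50:50) containing 0.5% Tween 20 at 15.625, 62.5 or 250 g/ha. Damage was scored after 13 days (0 = none, 100 = total).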

[8] = system: velvetleaf (Abutilon theophrasti); assay: Test G Pre-Emergence Protocol; details: Abutilon theophrasti, pre-emergence, 312 h, evaluated after 13 days
In short: as §2

corn (Zea mays) [9] = assay: Test G Pre-Emergence Protocol; details: Zea mays, pre-emergence, 312 h, evaluated after 13 days
In short: as §2

[10] = system: ivy-leaved morning glory (Ipomoea hederacea); assay: Test G Pre-Emergence Protocol; details: Ipomoea, pre-emergence, 312 h, evaluated after 13 days
In short: as §2

[11] = system: barnyardgrass (Echinochloa crus-galli); assay: Test G Pre-Emergence Protocol; details: Echinochloa crus-galli, pre-emergence, 312 h, evaluated after 13 days
In short: as §2

[12] = system: redroot pigweed (Amaranthus retroflexus); assay: Test G Pre-Emergence Protocol; details: Amaranthus retroflexus, pre-emergence, 312 h, evaluated after 13 days
In short: as §2

[13] = 15.625 g ai/ha, evaluated after 13 days (100=total damage to plant; 0=no damage to plant)
[14] = 62.5 g ai/ha, evaluated after 13 days, 100=total damage to plant, 0=no damage to plant
[15] = 250 g ai/ha, evaluated after 13 days, 100=total damage to plant, 0=no damage to plant

SMILES: CN1C[C@@H](c2ccc(C(F)(F)F)cc2)[C@H](C(=O)Nc2cnc(Cl)cn2)C1=O (racemic) [Compound 1649]
- pest or weed control at 15.625 g/ha [1, 13]: 0%
- pest or weed control at 62.5 g/ha [1, 14]: 0%
- pest or weed control at 250 g/ha [1, 15]: 60%
- pest or weed control at 15.625 g/ha [2, 13]: 0%
- pest or weed control at 62.5 g/ha [2, 14]: 0%
- pest or weed control at 250 g/ha [2, 15]: 0%
- plant injury at 15.625 g/ha (corn (Zea mays) [3]; [13]): 0%
- plant injury at 62.5 g/ha (corn (Zea mays) [3]; [14]): 0%
- plant injury at 250 g/ha (corn (Zea mays) [3]; [15]): 0%
- pest or weed control at 15.625 g/ha [4, 13]: 0%
- pest or weed control at 62.5 g/ha [4, 14]: 0%
- pest or weed control at 250 g/ha [4, 15]: 0%
- pest or weed control at 15.625 g/ha [5, 13]: 0%
- pest or weed control at 62.5 g/ha [5, 14]: 0%
- pest or weed control at 250 g/ha [5, 15]: 20%
- pest or weed control at 15.625 g/ha [6, 13]: 0%
- pest or weed control at 62.5 g/ha [6, 14]: 0%
- pest or weed control at 250 g/ha [6, 15]: 40%
- pest or weed control at 15.625 g/ha ([7]; 15.625 g ai/ha, read-out: Foxtail, Giant damage rating (100=total damage to plant; 0=no damage to plant)): 0%
- pest or weed control at 62.5 g/ha ([7]; 62.5 g ai/ha, 100=total damage to plant, 0=no damage to plant, read-out: Foxtail, Giant damage rating): 10%
- pest or weed control at 250 g/ha ([7]; 250 g ai/ha, read-out: Foxtail, Giant damage rating (100=total damage to plant; 0=no damage to plant)): 20%
- pest or weed control at 15.625 g/ha ([8]; 15.625 g ai/ha, read-out: Velvetleaf damage rating (100=total damage to plant; 0=no damage to plant)): 0%
- pest or weed control at 62.5 g/ha ([8]; 62.5 g ai/ha, 100=total damage to plant, 0=no damage to plant, read-out: Velvetleaf damage rating): 0%
- pest or weed control at 250 g/ha ([8]; 250 g ai/ha, read-out: Velvetleaf damage rating (100=total damage to plant; 0=no damage to plant)): 0%
- plant injury at 15.625 g/ha (corn (Zea mays) [9]; 15.625 g ai/ha, read-out: Corn damage rating (100=total damage to plant; 0=no damage to plant)): 0%
- plant injury at 62.5 g/ha (corn (Zea mays) [9]; 62.5 g ai/ha, 100=total damage to plant, 0=no damage to plant, read-out: Corn damage rating): 0%
- plant injury at 250 g/ha (corn (Zea mays) [9]; 250 g ai/ha, read-out: Corn damage rating (100=total damage to plant; 0=no damage to plant)): 0%
- pest or weed control at 15.625 g/ha ([10]; 15.625 g ai/ha, read-out: Morningglory, Ivy-leaved damage rating (100=total damage to plant; 0=no damage to plant)): 0%
- pest or weed control at 62.5 g/ha ([10]; 62.5 g ai/ha, 100=total damage to plant, 0=no damage to plant, read-out: Morningglory, Ivy-leaved damage rating): 0%
- pest or weed control at 250 g/ha ([10]; 250 g ai/ha, read-out: Morningglory, Ivy-leaved damage rating (100=total damage to plant; 0=no damage to plant)): 0%
- pest or weed control at 15.625 g/ha ([11]; 15.625 g ai/ha, read-out: Barnyardgrass damage rating (100=total damage to plant; 0=no damage to plant)): 0%
- pest or weed control at 62.5 g/ha ([11]; 62.5 g ai/ha, 100=total damage to plant, 0=no damage to plant, read-out: Barnyardgrass damage rating): 0%
- pest or weed control at 250 g/ha ([11]; 250 g ai/ha, read-out: Barnyardgrass damage rating (100=total damage to plant; 0=no damage to plant)): 0%
- pest or weed control at 15.625 g/ha ([12]; 15.625 g ai/ha, read-out: Pigweed, Redroot damage rating (100=total damage to plant; 0=no damage to plant)): 0%
- pest or weed control at 62.5 g/ha ([12]; 62.5 g ai/ha, 100=total damage to plant, 0=no damage to plant, read-out: Pigweed, Redroot damage rating): 20%
- pest or weed control at 250 g/ha ([12]; 250 g ai/ha, read-out: Pigweed, Redroot damage rating (100=total damage to plant; 0=no damage to plant)): 20%
